As usually defined, the inhibition is the change of the read-out against control, counted positive when it falls.

This passage reports inhibition results from US8906925B2, “Pyrido[4,3-B]indoles containing rigid moieties” (Medivation Technologies, Inc., priority 2008, dated 2014).

One experiment addresses histamine receptor H1 (Homo sapiens, UniProt P35367). The experiment can be described thus: Histamine H1 radioligand binding ([3H]Pyrilamine). As to conditions: read-out: Histamine Binding (1 μM) H1, percent inhibition of specific binding, 1 μM. The protocol: To evaluate in radioligand binding assays the activity of compounds of the invention, human recombinant histamine H1 receptor expressed in Chinese hamster ovary (CHO) cells (De Backer, M. D. et al., Biochem. Biophys. Res. Comm. 197(3):1601, 1993) in a modified Tris-HCl buffer (50 mM Tris-HCl, pH 7.4, 2 mM MgCl2, 100 mM NaCl, 250 mM Sucrose) was used. Compounds of the invention were incubated with 1.2 nM [^3H]Pyrilamine for 180 min. at 25° C. Non-specific binding was estimated in the presence of 1 μM pyrilamine. Receptor proteins were filtered and washed, the filters were then counted to determine [^3H]Pyrilamine specifically bound. Compounds were screened at 1 μM or lower, using 1% DMSO as vehicle. Biochemical assay results are presented as the percent inhibition of specific binding in Table 8.

The target in experiment [1] is human dopamine D2L receptor (Homo sapiens, UniProt P14416). Kind of experiment: Dopamine D2L radioligand binding ([3H]Spiperone). The following applies: compound at 1 μM. The source says: Non-specific binding was estimated in the presence of […] Haloperidol. Receptor proteins were filtered and washed, the filters were then counted to determine [^3H]Spiperone specifically bound. […] Biochemical assay results are presented as the percent inhibition of specific binding in Table 9.
Sequence of human dopamine D2L receptor (P14416 whole entry): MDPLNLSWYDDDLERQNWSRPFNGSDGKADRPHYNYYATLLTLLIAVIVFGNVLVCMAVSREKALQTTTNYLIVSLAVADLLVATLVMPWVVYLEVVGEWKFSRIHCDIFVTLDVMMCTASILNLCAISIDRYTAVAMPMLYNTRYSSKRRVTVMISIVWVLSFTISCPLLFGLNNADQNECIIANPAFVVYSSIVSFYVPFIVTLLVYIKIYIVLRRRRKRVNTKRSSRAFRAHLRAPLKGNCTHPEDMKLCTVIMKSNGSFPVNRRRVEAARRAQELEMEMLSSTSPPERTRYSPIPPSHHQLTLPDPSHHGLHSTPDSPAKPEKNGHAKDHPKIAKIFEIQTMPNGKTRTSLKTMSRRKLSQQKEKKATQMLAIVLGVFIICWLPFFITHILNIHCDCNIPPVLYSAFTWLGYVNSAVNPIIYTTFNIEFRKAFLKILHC

Setting [2] is: […] [3H]Spiperone, read-out: Inhibition of ligand binding, Dopamine D2L (percent inhibition of specific binding).
[3] abbreviates: percent inhibition of specific binding, read-out: Inhibition of ligand binding, Dopamine D2L.

Like-named read-outs stand apart in the source and are kept apart here.

Sequence of histamine receptor H1 (P35367 whole entry): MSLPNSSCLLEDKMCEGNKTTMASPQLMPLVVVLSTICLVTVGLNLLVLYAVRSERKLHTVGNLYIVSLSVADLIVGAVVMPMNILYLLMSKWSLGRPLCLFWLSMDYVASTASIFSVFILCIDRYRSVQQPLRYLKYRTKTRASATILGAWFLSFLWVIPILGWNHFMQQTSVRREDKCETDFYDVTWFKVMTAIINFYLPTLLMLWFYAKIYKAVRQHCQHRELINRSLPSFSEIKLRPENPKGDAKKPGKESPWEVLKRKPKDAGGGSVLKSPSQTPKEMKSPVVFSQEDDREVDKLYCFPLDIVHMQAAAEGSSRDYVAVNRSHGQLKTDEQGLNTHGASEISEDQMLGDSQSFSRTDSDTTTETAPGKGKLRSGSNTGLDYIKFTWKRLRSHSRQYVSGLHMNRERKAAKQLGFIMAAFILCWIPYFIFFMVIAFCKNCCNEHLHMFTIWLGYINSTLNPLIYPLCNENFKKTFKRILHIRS

Turning to `Cc1ccc2c(c1)c1c(n2C#Cc2cccs2)CCN(C)C1` [Compound No. 493, 2,8-dimethyl-5-(thiophen-2-ylethynyl)-2,3,4,5-tetrahydro-1H-pyrido[4,3-b]indole], the inhibition at 1 µM was determined as 69% at histamine receptor H1 and 56% in experiment [1] (setting [2]).
Take `CN1CCc2c(c3cc(Cl)ccc3n2/C=C(/c2ccccc2)c2ccncc2)C1` [Compound No. 461, (Z)-8-chloro-2-methyl-5-(2-phenyl-2-(pyridin-4-yl)vinyl)-2,3,4,5-tetrahydro-1H-pyrido[4,3-b]indole]: the inhibition at 1 µM on histamine receptor H1 was found to be 31%; in experiment [1] (setting [2]) it was 78%.
`C/C(=C\n1c2c(c3cc(Cl)ccc31)CN(C)CC2)c1cccs1` [Compound 338, (E)-8-chloro-2-methyl-5-(2-(thiophen-2-yl)prop-1-enyl)-2,3,4,5-tetrahydro-1H-pyrido[4,3-b]indole]: the inhibition at 1 µM on histamine receptor H1 was determined as 83%; in experiment [1] (setting [3]), 97%.
Turning to `Cc1ccc2c(c1)c1c(n2C#Cc2ccccc2)CCN(C)C1` [Compound No. 490, 2,8-dimethyl-5-(phenylethynyl)-2,3,4,5-tetrahydro-1H-pyrido[4,3-b]indole], the inhibition at 1 µM on histamine receptor H1 worked out at 18%; in experiment [1] (setting [2]), 74%.
In the same order, the values of `C=CCN1CCc2c(c3cc(Cl)ccc3n2/C=C(\C)c2ccncc2)C1` [compound 406, (E)-2-allyl-8-chloro-5-(2-(pyridin-4-yl)prop-1-enyl)-2,3,4,5-tetrahydro-1H-pyrido[4,3-b]indole] are 74% and 96%.
As for `CC/C(=C\n1c2c(c3cc(Cl)ccc31)CN(C)CC2)c1ccncc1` [Compound 284, (E)-8-chloro-2-methyl-5-(2-(pyridin-4-yl)but-1-enyl)-2,3,4,5-tetrahydro-1H-pyrido[4,3-b]indole], the inhibition at 1 µM on histamine receptor H1 stood at 40%; in experiment [1] (setting [3]) it was 84%.
For `Cc1ccc2c(c1)c1c(n2/C(=C(/F)c2ccncc2)c2ccncc2)CCN(C)C1` [compound 425, (E)-5-(2-fluoro-1,2-di(pyridin-4-yl)vinyl)-2,8-dimethyl-2,3,4,5-tetrahydro-1H-pyrido[4,3-b]indole], the inhibition at 1 µM came out at 4% on histamine receptor H1 and 6% in experiment [1] (setting [2]).
Regarding `CNC(=O)c1ccc(/C(C)=C/n2c3c(c4cc(C)ccc42)CN(C)CC3)cc1` [compound 435], the inhibition at 1 µM on histamine receptor H1 is 11%; in experiment [1] (setting [2]) it was 71%.
As for `C/C(=C\n1c2c(c3cc(C)ccc31)CN(CCc1ccccc1)CC2)c1ccncc1` [compound 412, (E)-8-methyl-2-phenethyl-5-(2-(pyridin-4-yl)prop-1-enyl)-2,3,4,5-tetrahydro-1H-pyrido[4,3-b]indole], the inhibition at 1 µM turned out to be 27% on histamine receptor H1 and 94% in experiment [1] (setting [2]).
For `C/C(=C\n1c2c(c3cc(N4CCCCC4)ccc31)CN(C)CC2)c1ccncc1` [compound 445, (E)-2-methyl-8-(piperidin-1-yl)-5-(2-(pyridin-4-yl)prop-1-enyl)-2,3,4,5-tetrahydro-1H-pyrido[4,3-b]indole], the inhibition at 1 µM at histamine receptor H1 worked out at 1%; in experiment [1] (setting [2]), 20%.
In the same order, the values of `C/C(=C\n1c2c(c3cc(Cl)ccc31)CN(C)CC2)c1ccsc1` [compound 388, (E)-8-chloro-2-methyl-5-(2-(thiophen-3-yl)prop-1-enyl)-2,3,4,5-tetrahydro-1H-pyrido[4,3-b]indole] are 100% and 99%.
In the case of `C/C(=C\n1c2c(c3cc(C)ccc31)CN(CCO)CC2)c1ccncc1` [Compound 332, (E)-2-(8-methyl-5-(2-(pyridin-4-yl)prop-1-enyl)-3,4-dihydro-1H-pyrido[4,3-b]indol-2(5H)-yl)ethanol], the inhibition at 1 µM on histamine receptor H1 was determined as 23%; in experiment [1] (setting [3]) it was 79%.
For the compound `CO/C(=C(/C)n1c2c(c3cc(C)ccc31)CN(C)CC2)c1ccncc1` [compound 418, (Z)-5-(1-methoxy-1-(pyridin-4-yl)prop-1-en-2-yl)-2,8-dimethyl-2,3,4,5-tetrahydro-1H-pyrido[4,3-b]indole], the inhibition at 1 µM at histamine receptor H1 stood at 33%; in experiment [1] (setting [2]), 14%.
In the same order, the values of `C/C(=C\n1c2c(c3cc(Cl)ccc31)CN(C(=O)OCc1ccccc1)CC2)c1ccncc1` [compound 396, (E)-benzyl 8-chloro-5-(2-(pyridin-4-yl)prop-1-enyl)-3,4-dihydro-1H-pyrido[4,3-b]indole-2(5H)-carboxylate] are 15% and 7%.
As to `C/C(=C\n1c2c(c3cc(Cl)ccc31)CN(C)[C@H](C)C2)c1ccncc1` [compound 392, (R,E)-8-chloro-2,3-dimethyl-5-(2-(pyridin-4-yl)prop-1-enyl)-2,3,4,5-tetrahydro-1H-pyrido[4,3-b]indole], the inhibition at 1 µM on histamine receptor H1 is 84%; in experiment [1] (setting [2]), 99%.
In the case of `C/C(=C/n1c2c(c3cc(Cl)ccc31)CN(C)CC2)c1ccncc1C` [compound 417, (Z)-8-chloro-2-methyl-5-(2-(3-methylpyridin-4-yl)prop-1-enyl)-2,3,4,5-tetrahydro-1H-pyrido[4,3-b]indole], the inhibition at 1 µM at histamine receptor H1 was determined as 48%; in experiment [1] (setting [2]) it was 87%.
In the same order, the values of `C/C(=C\n1c2c(c3cc(Cl)ccc31)CN(C)CC2)c1nccs1` [Compound 370, (E)-2-(1-(8-chloro-2-methyl-3,4-dihydro-1H-pyrido[4,3-b]indol-5(2H)-yl)prop-1-en-2-yl)thiazole] are 72% and 63%.
Regarding `C/C(=C\n1c2c(c3cc(C)ccc31)CN(C)CC2)c1ccc(S(C)(=O)=O)cc1` [Compound No. 462, (E)-2,8-dimethyl-5-(2-(4-(methylsulfonyl)phenyl)prop-1-enyl)-2,3,4,5-tetrahydro-1H-pyrido[4,3-b]indole], the inhibition at 1 µM at histamine receptor H1 was 32%; in experiment [1] (setting [2]) it was 76%.
Consider `C/C(=C\n1c2c(c3ccc(C(C)C)cc31)CN(C)CC2)c1ccncc1` [Compound 334, (E)-7-isopropyl-2-methyl-5-(2-(pyridin-4-yl)prop-1-enyl)-2,3,4,5-tetrahydro-1H-pyrido[4,3-b]indole], for which the inhibition at 1 µM came to 18% at histamine receptor H1 and 90% in experiment [1] (setting [3]).
Take `CC(C)=C(Cn1c2c(c3cc(C)ccc31)CN(C)CC2)c1ccncc1` [Compound No. 358, 2,8-dimethyl-5-(3-methyl-2-(pyridin-4-yl)but-2-enyl)-2,3,4,5-tetrahydro-1H-pyrido[4,3-b]indole]: the inhibition at 1 µM on histamine receptor H1 worked out at 47%; in experiment [1] (setting [2]), 14%.
In the same order, the values of `Cc1ccc2c(c1)c1c(n2C(C)C(O)c2ccccc2)CCN(C)C1` (stereo not shown) [Compound No. 468, 2-(2,8-dimethyl-3,4-dihydro-1H-pyrido[4,3-b]indol-5(2H)-yl)-1-phenylpropan-1-ol] are 82% and 12%.
In the same order, the values of `C/C(=C\n1c2c(c3cc(Cl)ccc31)CN(CCCC(O)c1ccc(F)cc1)CC2)c1ccncc1` (stereo not shown) [compound 395, (E)-4-(8-chloro-5-(2-(pyridin-4-yl)prop-1-enyl)-3,4-dihydro-1H-pyrido[4,3-b]indol-2(5H)-yl)-1-(4-fluorophenyl)butan-1-ol] are 102% and 99%.
For `Cc1ccc2c(c1)c1c(n2/C(=C(/F)c2ccc(C)nc2)c2ccc(C)nc2)CCN(C)C1` [compound 419], the inhibition at 1 µM on histamine receptor H1 stood at 52%; in experiment [1] (setting [2]), 20%.
Regarding `Cc1ccc2c(c1)c1c(n2CC(C)(O)c2ccncc2)CC(C)N(C)C1` (stereo not shown) [Compound 345, 2-(pyridin-4-yl)-1-(2,3,8-trimethyl-3,4-dihydro-1H-pyrido[4,3-b]indol-5(2H)-yl)propan-2-ol], the inhibition at 1 µM at histamine receptor H1 came out at 56%; in experiment [1] (setting [3]), 15%.
As for `C/C=C(/Cn1c2c(c3cc(Cl)ccc31)CN(C)CC2)c1ccncc1` [Compound No. 362, (E)-8-chloro-2-methyl-5-(2-(pyridin-4-yl)but-2-enyl)-2,3,4,5-tetrahydro-1H-pyrido[4,3-b]indole], the inhibition at 1 µM on histamine receptor H1 is 98%; in experiment [1] (setting [2]) it was 79%.
In the same order, the values of `CO/C(=C\n1c2c(c3cc(C)ccc31)CN(C)CC2)c1ccncc1` [compound 413, (Z)-5-(2-methoxy-2-(pyridin-4-yl)vinyl)-2,8-dimethyl-2,3,4,5-tetrahydro-1H-pyrido[4,3-b]indole] are 16% and 60%.
The like results for `C/C=C(/Cn1c2c(c3cc(C)ccc31)CN(C)CC2)c1ccncc1` [Compound No. 361, (E)-2,8-dimethyl-5-(2-(pyridin-4-yl)but-2-enyl)-2,3,4,5-tetrahydro-1H-pyrido[4,3-b]indole] were, in that order, 96% and 51%.
In the same order, the values of `Cc1ccc2c(c1)c1c(n2C#Cc2ccoc2)CCN(C)C1` [Compound No. 492, 5-(furan-3-ylethynyl)-2,8-dimethyl-2,3,4,5-tetrahydro-1H-pyrido[4,3-b]indole] are 68% and 60%.
On to `C/C(=C\n1c2c(c3cc(Cl)ccc31)CN(C)CC2)c1cnccn1` [Compound 333, (E)-8-chloro-2-methyl-5-(2-(pyrazin-2-yl)prop-1-enyl)-2,3,4,5-tetrahydro-1H-pyrido[4,3-b]indole], for which the inhibition at 1 µM on histamine receptor H1 worked out at 29%; in experiment [1] (setting [3]) it was 51%.
